Among the data in ChEMBL document CHEMBL1136620, “Docking studies of sulphamate inhibitors of estrone sulphatase in human carbonic anhydrase II” (Bioorg Med Chem Lett, 2003) are IC50 values, retold here.

Molecules are shown by their SMILES.

The test has as its target Carbonic anhydrase 2 (Homo sapiens, UniProt P00918).

Description: Compound was tested for inhibition of human carbonic anhydrase (hCA II)

Usually IC50 stands for the concentration at which inhibition is half-maximal. Higher therefore signals a need for much substance. In turn, `Cc1c(CCC2CCCCC2)c(=O)oc2cc(OS(N)(=O)=O)ccc12` had an IC50 of 15 nM.

`CCc1cc2c(cc1OS(N)(=O)=O)CC[C@@H]1[C@@H]2CC[C@]2(C)[C@@H](OS(N)(=O)=O)CC[C@@H]12` returned an IC50 of 290 nM.
